Results taken from publication PMC6540241, “Targeting Tumor Markers with Antisense Peptides: An Example of Human Prostate Specific Antigen” (International Journal of Molecular Sciences, 2019).
Blank lines part the entries; values can stand above or below the molecule they belong to. Where a SMILES comes first, the peptide text is derived from it. Where no end group is shown, it is not given here. The star is where a group is joined. Biotin = O=C1N[C@H]2[C@H](CS[C@H]2CCCCC(=O)*)N1

B1: Human prostate specific antigen (hPSA) peptide 53–59: RHSLFHP (peptide)
peptide: RHSLFHP
notes: human prostate specific antigen (hPSA), residues 53-59 (R53-P59); 77-83 of the precursor P07288; In the magnetic particle enzyme immunoassay the peptide was coupled by EDC to SPHERO carboxyl magnetic particles; also called sense peptide; source: synthetic peptide, bought: GenScript (>97% purity)
B2: N-terminal biotin antisense peptide Biotin-AVRDKVG (peptide)
peptide: Biotin-AVRDKVG
modifications: not fully specified
notes: Some sentences print AKRDKVG; also called biotinylated antisense peptide AVRDKVG; antisense paratope Biotin-AVRDKVG; source: synthetic peptide, bought: GenScript (>97% purity)

Experiments:
[1] = test system: liver tissue; experiment: Immunohistochemical staining of negative control tissue (protocol 2); parameters: species or system human
Method: (§1) Immunohistochemistry was performed on deparafinized slides (xylen and a series of ethanol solutions) at room temperature (20–25 °C). The phosphate-buffered saline (PBS) was used, with a pH of 7.2 and containing disodium hydrogen phosphate, sodium chloride, potassium chloride and potassium dihydrogen phosphate was used. PBS stock solution: 4 g KH2PO4, 23 g Na2HPO4, 4 g KCl, 160 g NaCl and 810 mL distilled water. Before staining, 100 mL of stock solution was diluted with 1900 mL of distilled water.
Each of the two immunohistochemistry protocols for PSA staining consisted of six steps. Steps 1, 4, 5 and 6 of protocol 1 and protocol 2 were identical, while steps 2 and 3 differed (Figure 5 and Figure 6). […] They were analyzed using an Olympus BX41 microscope, with an Olympus DP71 camera set to three levels of magnification: less than 40×, 100×, and 500×.
The staining protocol 2 was a modified IHC protocol 1, as follows: In step 2 we used antisense peptide Biotin-AVRDKVG, instead of the primary monoclonal mouse anti-human PSA antibody, in step 3 we used rabbit polyclonal antibody to biotin conjugated to HRP, instead of HRP labeled polymer conjugated to goat anti-mouse immunoglobulins (Figure 5), with peptide Biotin-EHFRW as a negative control (Figure 7). […] The scale is presented in Table A2, and the final results given in Table 4 are expressed as a sum of scores. […]

[2] = target: T1, hPSA peptide RHSLFHP coated onto carboxyl magnetic particles (Homo sapiens, UniProt P07288); experiment: Magnetic particle enzyme immunoassay (MPEIA); assay type: binding
T1 construct: Human prostate specific antigen (hPSA) peptide 53–59: RHSLFHP; purchased GenScript; host or cells: synthetic peptide
Method: Briefly, the reaction mixture was composed of 2 mL sodium acetate buffer (0.01M, pH 5.0), 2 mg of peptide and 2 mL of 2.5% w/v carboxyl magnetic particles―1.14 μm, 20 mg of EDC. Reactions proceeded in glass reaction tubes overnight at room temperature in a rotary mixer. Tubes were centrifuged at 3000× g for 15 min, supernatant was carefully discarded, and the pellets were washed twice in 4 mL isotonic buffered saline (IBS), followed by centrifugation. After washing, coated magnetic particles were resuspended in 4 mL of PBS containing 0.05% Tween 20.
Two folds serial dilutions (1.09–70 µM) of biotinylated antisense peptide AVRDKVG were made in 96-well microtiter plates to generate standard curves (Figure 4b). Mismatched peptide Biotin-EHFRW was used as a negative control (Figure 4b). A suspension (1.25% w/v) of carboxyl magnetic particles, coated with sense peptide RHSLFHP, was added to each well (40 µL/well). The plates were incubated at room temperature for 30 min and washed with PBS-Tween 20 five times. The washing solution was removed each time using the Spherotech UltraMag Separator (Sperotech, Inc., Lake Forest, IL, USA).
A blocking solution (PBS with 1% BSA) was added to the wells and incubated at room temperature for one hour. […] The absorbances were read at 450 nm on a multiwell plate reader. The data were analyzed using GraphPad Prism software version 5.

[3] = target: T2, hPSA peptide RHSLFHP (residues 53–59) (Homo sapiens, UniProt P07288); experiment: Microscale thermophoresis (MST); assay type: binding
T2 construct: Human prostate specific antigen (hPSA) peptide 53–59: RHSLFHP; purchased GenScript; host or cells: synthetic peptide
Method: The binding between the biotinylated antisense peptide AVRDKVG and a titrant, i.e., hPSA peptide RHSLFHP (Figure 3b), was observed by the method of microscale thermophoresis (MST). MST-analysis was performed using the Monolith.NT.115 instrument (NanoTemper Technologies GmbH, Munich, Germany). Biotin-AVRDKVG antisense directed to the hPSA region 53–59 was labeled with DY-495 (Red). The labeling procedure and the subsequent removal of unattached dye were performed within 45 min. A serial dilution of the non-labeled hPSA titrant was prepared in a 10 mM phosphate buffer. The concentration of biotin-hPSA antisense labelled with DY-495 was kept constant, while the concentration of the non-fluorescent binding partner (hPSA peptide RHSLFHP53–59) was varied between 0.0854 µM and 2.8 mM. After a short incubation, the samples were loaded into MST NT.115 standard glass capillaries and the MST-analysis was performed. The data were analyzed using GraphPad Prism software version 5.

[4] = test system: human prostate specific antigen (hPSA) in prostate cancer tissue; experiment: Immunohistochemical staining of hPSA, protocol 2 (biotinylated peptide instead of primary antibody); parameters: key to overall quality of scoring (NordiQC) / hPSA staining quality score (NordiQC): 3: Staining reaction considered perfect or close to perfect.; 2: Staining reaction considered fully acceptable. The protocol may be optimized to ensure the best staining intensity and signal-to-noise ratio.; 1: Staining considered insufficient.; 0: Staining considered very insufficient
Method: as §1
All slides (from seven patients) were selected from the repository of prostate cancer tissue, with diagnosis confirmed by consensus of two independent pathologists. The two pathologists who examined the slides stained with antisense peptides were unconnected with the pathologists who established the initial diagnosis.
Each of the two immunohistochemistry protocols for PSA staining consisted of six steps. Steps 1, 4, 5 and 6 of protocol 1 and protocol 2 were identical, while steps 2 and 3 differed (Figure 5 and Figure 6). For this study, the slides were kept in the dark at room temperature (20–25 °C), to prevent fading as a result of exposure to strong light. They were analyzed using an Olympus BX41 microscope, with an Olympus DP71 camera set to three levels of magnification: less than 40×, 100×, and 500×.
The staining protocol 2 was a modified IHC protocol 1, as follows: In step 2 we used antisense peptide Biotin-AVRDKVG, instead of the primary monoclonal mouse anti-human PSA antibody, in step 3 we used rabbit polyclonal antibody to biotin conjugated to HRP, instead of HRP labeled polymer conjugated to goat anti-mouse immunoglobulins (Figure 5), with peptide Biotin-EHFRW as a negative control (Figure 7). Otherwise, the procedures and chemicals were identical. Quality control for the PSA staining was investigated using NordiQC scoring criteria: 0—Poor; 1—Borderline; 2—Good; 3—Optimal. The scale is presented in Table A2, and the final results given in Table 4 are expressed as a sum of scores.
IHC staining―protocol 2: • The specimen was covered with peroxidase block, i.e., 100 μL of 0.03% hydrogen peroxide containing sodium azide (Dako, Glostrup, Denmark), and incubated for four minutes. Following this, the specimen was gently rinsed with phosphate buffered saline (PBS), and placed in a fresh buffer bath. • Biotinylated antisense peptide AVRDKVG (GenScript, Piscataway, NJ, USA) directed to PSA epitope 53–59 (RHSLFHP) was used to cover the specimen. Five milligrams of Biotin-AVRDKVG antisense was diluted in 2.5 mL PBS. Dilutions 1:10, 1:50, 1:100, 1:200 and 1:500 were applied to cover the specimen. A 100 μL volume was used per section. After 30 min of incubation, each specimen was gently rinsed with PBS and placed in a fresh buffer bath. • Anti-biotin antibody conjugated to HRP (ab34645, Abcam, Cambridge, UK) was applied to cover the specimen. Of the antibody 10 mg/2 mL was diluted 1:100. One hundred microliters of the diluted antibody was applied to cover each specimen, followed by a 30 min incubation. After the incubation, the specimen was gently rinsed with PBS and placed in a fresh buffer bath. • The specimen was covered with 100 μL of AEC + substrate-chromogen solution for 10 min, i.e., 3-amino-9-ethylcarbazole containing hydrogen peroxide, stabilizers, enhancers and an anti-microbial agent (Dako, Glostrup, Denmark). After that period the specimen was again rinsed with PBS. • The slides were immersed in a bath of aqueous hematoxylin (Mayerr’s hematoxylin), and rinsed gently in a distilled water bath. The slides were dipped 10 times into a bath of ammonia (0.037 mol/L), and then rinsed in a bath of distilled water for four minutes. • The specimens were mounted and coverslipped with non-aqueous permanent mounting medium Ultramount.

[5] = target: B2; experiment: MST; Biotin-AVRDKVG labelled with DY-495 kept constant; unlabelled RHSLFHP titrated 0.0854 µM to 2.8 mM in 10 mM phosphate buffer; Monolith NT.115, standard capillaries; conditions: both partners purified
[6] = target: B1; experiment: magnetic particle enzyme immunoassay (MPEIA); RHSLFHP coupled by EDC to SPHERO carboxyl magnetic particles; biotinylated peptide in two-fold dilutions 1.09–70 µM, room temperature, 30 min, PBS-Tween 20 washes; detected with streptavidin-peroxidase polymer and OPD, absorbance at 450 nm; conditions: both partners purified
[7] = mismatched peptide, negative control

Kd ([2]; peptide 1.09–70 µM, 30 min, room temperature, streptavidin-peroxidase/OPD, 450 nm, r^2 = 0.996, mean ± SEM (SEM 0.20 µM), read-out: dissociation constant (Kd)): 24.6 µM
Kd ([3]; Biotin-AVRDKVG labelled with DY-495, constant, RHSLFHP 0.0854 µM–2.8 mM, 10 mM phosphate buffer, r^2 = 0.989, mean ± SEM, read-out: dissociation constant (Kd)): 24.3 ± 0.74 µM
Molecule: CC(C)[C@H](NC(=O)[C@H](C)NC(=O)CCCC[C@@H]1SC[C@@H]2NC(=O)N[C@@H]21)C(=O)N[C@@H](CCCNC(=N)N)C(=O)N[C@@H](CC(=O)O)C(=O)N[C@@H](CCCCN)C(=O)N[C@H](C(=O)NCC(=O)O)C(C)C [Biotin-AVRDKVG] (Biotin-AVRDKVG-OH)
staining of negative control tissue [1]: did not stain
effect of N-terminal biotinylation on binding ([3]; versus Kd of the non-biotinylated peptide by tryptophan fluorescence): does not significantly alter the binding to hPSA region 53–59 (RHSLFHP)
signal to noise ratio versus standard monoclonal antibody ([4]; compared with primary monoclonal mouse anti-human PSA antibody): comparable to the standard primary monoclonal mouse anti-human PSA antibody
hPSA staining quality score (NordiQC) ([4]; dilution 1:10 (of 5 mg in 2.5 mL PBS), patient 1): 0
hPSA staining quality score (NordiQC) ([4]; dilution 1:10, patient 2): 0
hPSA staining quality score (NordiQC) ([4]; dilution 1:10, patient 3): 0
hPSA staining quality score (NordiQC) ([4]; dilution 1:10, patient 4): 0
hPSA staining quality score (NordiQC) ([4]; dilution 1:10, patient 5): 0
hPSA staining quality score (NordiQC) ([4]; dilution 1:10, patient 6): 0
hPSA staining quality score (NordiQC) ([4]; dilution 1:10, patient 7): 0
Sum of scores (NordiQC) ([4]; dilution 1:10, seven patients): 0
hPSA staining quality score (NordiQC) ([4]; dilution 1:50, patient 1): 1
hPSA staining quality score (NordiQC) ([4]; dilution 1:50, patient 2): 1
hPSA staining quality score (NordiQC) ([4]; dilution 1:50, patient 3): 2
hPSA staining quality score (NordiQC) ([4]; dilution 1:50, patient 4): 1
hPSA staining quality score (NordiQC) ([4]; dilution 1:50, patient 5): 1
hPSA staining quality score (NordiQC) ([4]; dilution 1:50, patient 6): 1
hPSA staining quality score (NordiQC) ([4]; dilution 1:50, patient 7): 1
Sum of scores (NordiQC) ([4]; dilution 1:50, seven patients): 8
staining of prostate cancer tissue ([4]; dilution 1:100): solid staining signal with minimal or absent background noise
hPSA staining quality score (NordiQC) ([4]; dilution 1:100, patient 1): 2
hPSA staining quality score (NordiQC) ([4]; dilution 1:100, patient 2): 2
hPSA staining quality score (NordiQC) ([4]; dilution 1:100, patient 3): 3
hPSA staining quality score (NordiQC) ([4]; dilution 1:100, patient 4): 2
hPSA staining quality score (NordiQC) ([4]; dilution 1:100, patient 5): 3
hPSA staining quality score (NordiQC) ([4]; dilution 1:100, patient 6): 2
hPSA staining quality score (NordiQC) ([4]; dilution 1:100, patient 7): 2
Sum of scores (NordiQC) ([4]; dilution 1:100, seven patients): 16
hPSA staining quality score (NordiQC) ([4]; dilution 1:200, patient 1): 0
hPSA staining quality score (NordiQC) ([4]; dilution 1:200, patient 2): 1
hPSA staining quality score (NordiQC) ([4]; dilution 1:200, patient 3): 1
hPSA staining quality score (NordiQC) ([4]; dilution 1:200, patient 4): 1
hPSA staining quality score (NordiQC) ([4]; dilution 1:200, patient 5): 1
hPSA staining quality score (NordiQC) ([4]; dilution 1:200, patient 6): 1
hPSA staining quality score (NordiQC) ([4]; dilution 1:200, patient 7): 1
Sum of scores (NordiQC) ([4]; dilution 1:200, seven patients): 6
hPSA staining quality score (NordiQC) ([4]; dilution 1:500, patient 1): 0
hPSA staining quality score (NordiQC) ([4]; dilution 1:500, patient 2): 0
hPSA staining quality score (NordiQC) ([4]; dilution 1:500, patient 3): 0
hPSA staining quality score (NordiQC) ([4]; dilution 1:500, patient 4): 0
hPSA staining quality score (NordiQC) ([4]; dilution 1:500, patient 5): 0
hPSA staining quality score (NordiQC) ([4]; dilution 1:500, patient 6): 0
hPSA staining quality score (NordiQC) ([4]; dilution 1:500, patient 7): 0
Sum of scores (NordiQC) ([4]; dilution 1:500, seven patients): 0
staining of prostate cancer tissue ([4]; dilutions 1:10 and 1:50): increase in background noise
staining of prostate cancer tissue ([4]; dilutions 1:200 and 1:500): loss of staining signal
non-specific staining of prostate tissue ([4]; high concentration (1:10)): increase in background
overall quality of scoring (NordiQC) ([4]; overall): 2

Molecule: Biotin-EHFRW [N-terminal biotin mismatched peptide, negative control, reference compound]
staining of hPSA of the prostate tissue [4, 7]: did not stain

Molecule: Biotin-EHFRW: N-terminal biotin mismatched peptide, negative control [reference compound]
binding to hPSA epitope RHSLFHP [2, 7]: does not bind

Molecule: B1
Kd [5]: 24.3 µM

Molecule: B2
Kd [6]: 24.6 µM
